This is an account of results in ChEMBL document CHEMBL1201862, “PubChem BioAssay data set” (2004).

Some test systems named below: RXF 393; OVCAR-5; SF-295; IGROV-1; HOP-62; ACHN; NCI-H23; MCF7; SF-539; CAKI-1; OVCAR-8; EKVX; OVCAR-4; DU-145; NCI/ADR-RES; 786-0; U-251; UACC-257; PC-3; SNB-19.
What all share (test): NCI anticancer screen, dose series, 48 h

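Cells were grown in 96-well plates and exposed to each compound for 48 hours at five concentrations; endpoints were interpolated linearly between bracketing concentrations, or set to the highest concentration if not reached. GI50 is the concentration that inhibits growth by half.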 Calls of active or inactive are those of the source. Cut-off read from the data, not from the text of the source: active = GI50 up to about 1.1 µM and inactive = higher. Some results are limits rather than exact numbers.

For `CCC1C(c2cc(OC)c(OC)c(OC)c2)c2cc3c(cc2OC1N1CCCC1)OCO3` (stereo not given), the GI50 was 1.45 µM (inactive) with RXF 393; 8.49 µM (inactive) in the assay on OVCAR-5; 1.07 µM (active) with SF-295; 2.62 µM (inactive) in the assay on IGROV-1; 2.82 µM (inactive) in the assay on HOP-62; 4.03 µM (inactive) in the assay on ACHN. The GI50 in the assay with NCI-H23 is 4.46 µM (inactive); in the assay with MCF7, 0.542 µM (active); in the assay with SF-539, 1.39 µM (inactive); in the assay on CAKI-1, 0.598 µM (active); in the assay with OVCAR-8 it was 4.07 µM (inactive); in the assay with EKVX it was 7.28 µM (inactive). Also, the GI50 with OVCAR-4 was 12.7 µM (inactive); with DU-145 it was 2.37 µM (inactive); in the assay with NCI/ADR-RES, 1.41 µM (inactive); with 786-0, 3.07 µM (inactive); in the assay with U-251, 2.56 µM (inactive); in the assay with UACC-257, 4.59 µM (inactive). Further, the GI50 was 1.48 µM (inactive) in the assay with PC-3 and 2.74 µM (inactive) in the assay with SNB-19.

Turning to `Cc1ccc(S(=O)(=O)N/N=C/C(Br)=C(/Br)C(=O)O)cc1`, the GI50 with RXF 393 is 2.21 µM (inactive); in the assay on OVCAR-5, > 19.7 µM (inactive); in the assay with SF-295 it was 14.1 µM (inactive); in the assay on IGROV-1, 16.1 µM (inactive); in the assay with HOP-62 it was 16.2 µM (inactive); in the assay with ACHN, 2.71 µM (inactive). Also, the GI50 in the assay on NCI-H23 was 6.1 µM (inactive); in the assay with MCF7, 7.41 µM (inactive); in the assay on SF-539, 5.69 µM (inactive); in the assay on CAKI-1 it was 5.64 µM (inactive); in the assay with OVCAR-8, 2.6 µM (inactive); in the assay on EKVX, 10.2 µM (inactive). For the same compound, the GI50 in the assay on OVCAR-4 is 6.22 µM (inactive); in the assay on DU-145, 12.2 µM (inactive); with NCI/ADR-RES, 3.69 µM (inactive); in the assay on 786-0 it was 3.42 µM (inactive); with U-251, 4.22 µM (inactive); with UACC-257, 12.1 µM (inactive). The GI50 in the assay on PC-3 was 8.89 µM (inactive); with SNB-19, 13.8 µM (inactive).

In the case of `CC(C)NC(=O)OCc1c(COC(=O)NC(C)C)c(-c2ccc[n+](COC(=O)CC(C)(C)C)c2)n2c1CCC2`, the GI50 in the assay on RXF 393 was 38.7 µM (inactive); in the assay on OVCAR-5, > 100 µM (inactive); in the assay on SF-295 it was 60.5 µM (inactive); in the assay on IGROV-1, > 100 µM (inactive); with HOP-62, 56.6 µM (inactive); in the assay with ACHN, 35.6 µM (inactive). For the same compound, the GI50 in the assay on NCI-H23 was 48.6 µM (inactive); in the assay on MCF7, 70.1 µM (inactive); in the assay with SF-539 it was 84.9 µM (inactive); in the assay with CAKI-1 it was 38.5 µM (inactive); in the assay on OVCAR-8 it was 81.3 µM (inactive); in the assay with EKVX, > 100 µM (inactive). For the same compound, the GI50 with OVCAR-4 was > 100 µM (inactive); in the assay with DU-145, > 100 µM (inactive); in the assay with NCI/ADR-RES it was 71 µM (inactive); in the assay on 786-0, 38.4 µM (inactive); in the assay on U-251, 94.8 µM (inactive); with UACC-257, > 100 µM (inactive). Further, the GI50 in the assay on PC-3 was 58.5 µM (inactive); in the assay on SNB-19, > 100 µM (inactive).

For `COc1c(C)c(C/C=C(\C)CCCCO[Si](C(C)C)(C(C)C)C(C)C)c(OC)c2ccccc12`, the GI50 in the assay with RXF 393, in the assay on OVCAR-5, in the assay on SF-295, in the assay with IGROV-1, in the assay on HOP-62 and in the assay with ACHN was > 100 µM (inactive) in each case. For the same compound, the GI50 in the assay with NCI-H23, with MCF7, with SF-539, in the assay with CAKI-1, in the assay on OVCAR-8 and with EKVX was > 100 µM (inactive) in each case. Besides, the GI50 with OVCAR-4, in the assay with DU-145, with NCI/ADR-RES, in the assay with 786-0, in the assay on U-251 and with UACC-257 was > 100 µM (inactive) throughout. Also, the GI50 with PC-3 and in the assay on SNB-19 was > 100 µM (inactive) each time.

Take `O=C1OC(OC/C(Br)=C(\Br)COC2OC(=O)C(Cl)=C2Cl)C(Cl)=C1Cl` (stereo not given): the GI50 in the assay with RXF 393 was 2.39 µM (inactive); in the assay with OVCAR-5 it was 12.9 µM (inactive); in the assay on SF-295 it was 18.3 µM (inactive); with IGROV-1 it was 12.3 µM (inactive); in the assay with HOP-62 it was 14.5 µM (inactive); in the assay with ACHN, 5.97 µM (inactive). Also, the GI50 was 3.18 µM (inactive) in the assay with NCI-H23; 4.41 µM (inactive) in the assay with MCF7; 6.89 µM (inactive) in the assay with SF-539; 2.26 µM (inactive) in the assay on CAKI-1; 2.4 µM (inactive) with OVCAR-8; 9.57 µM (inactive) in the assay with EKVX. Further, the GI50 with OVCAR-4 is 7.6 µM (inactive); with DU-145, 15.1 µM (inactive); with NCI/ADR-RES, 4.92 µM (inactive); in the assay on 786-0, 2.51 µM (inactive); with U-251, 4.58 µM (inactive); with UACC-257 it was 9.68 µM (inactive). Moreover, the GI50 is 14.1 µM (inactive) in the assay with PC-3 and 17.1 µM (inactive) with SNB-19.
